This passage reports IC50 results from US9758541B2 (priority 2013, dated 2017).

By IC50 is commonly meant the concentration at which inhibition is half-maximal.

The first experiment relates to MDA-MB-231 cells (non-hormone-dependent breast cancer cells). Format: cell-based.
Details: not given
The substance “2,3-Dihydro-3-hydroxy-2-[4-ferrocenyl-5,5-bis-(4-hydroxyphenyl)-pent-4-enyl]-1H-isoindol-1-one [P710]” had an IC50 of 0.59 µM.

Consider “2,3-Dihydro-3-methoxy-2-[5-ferrocenyl-6,6-bis-(4-hydroxyphenyl)-hex-5-enyl]-1H-isoindol-1-one [P727]”, for which the IC50 is 1.63 µM.

As to “2-ferrocenyl-1,1-bis-(4-hydroxyphenyl)-5-dimethylamino-pent-1-ene [P697]”, the 50% inhibitory concentration (IC50) was 2.53 µM.

Consider “N-{4-ferrocenyl-5,5-bis-(4-hydroxyphenyl)-pent-4-enyl}phthalimide [P686]”, for which 0.2 µM corresponded to half-maximal inhibition (IC50).

Take “1,1-bis-(4-hydroxyphenyl)-5-hydroxy-2-ruthenocenyl-pent-1-en [W3]”: the IC50 was found to be 12.5 µM.

As to “N-{5-ferrocenyl-6,6-bis-(4-hydroxyphenyl)-hex-5-enyl}phthalimide [P720]”, the IC50 was determined as 0.33 µM.

“2-ferrocenyl-1-(4-hydroxyphenyl)-5-hydroxy-1-phenyl-pent-1-ene [P681]”: the IC50 was determined as 1.22 µM.

Substance “Ethyl 3-ene-3-ferrocenyl-4,4-bis-(4-hydroxyphenyl)-butanoate [P64]” gave an IC50 of 1.16 µM.

For the substance “Methyl 6-ene-6-ferrocenyl-7,7-bis-(4-hydroxyphenyl)-heptanoate [P504]”, the half-inhibitory concentration (IC50) is 0.62 µM.

A further experiment concerns PC3 cells (non-hormone-dependent prostate cancer cells). The settings on record: read-out: IC50 (μM) of P53, Table 2, 72 h exposure, MTS.
Regarding “2-ferrocenyl-1,1-bis-(4-hydroxyphenyl)-5-hydroxy-pent-1-ene [P53]”, the half-inhibitory concentration (IC50) amounted to 4.43 µM.

The next experiment concerns Mia-PaCa cells (pancreatic cancer cells). The note with it: read-out: IC50 (μM) of P53, Table 2, 72 h exposure, MTS.
With “2-ferrocenyl-1,1-bis-(4-hydroxyphenyl)-5-hydroxy-pent-1-ene [P53]”, the 50% inhibitory concentration (IC50) is 1.23 µM.
